Laboratory results from ChEMBL document CHEMBL1147220, “Divinatorins A-C, new neoclerodane diterpenoids from the controlled sage Salvia divinorum” (2003).
Values after ≈ are worked out from the molar mass of the structure shown. One block for each molecule: values may come before it. Active and inactive are the calls of the source. No cut-off for these calls is given here.

Assays:
Bacillus subtilis [1] = assay: Antibacterial activity against Bacillus subtilis ATCC 6633 at 100 ug/disk by disk diffusion method; type: functional
Staphylococcus aureus [2] = assay: Antibacterial activity against Staphylococcus aureus ATCC 29213 by microdilution method; type: functional
Bacillus subtilis [3] = assay: Antibacterial activity against Bacillus subtilis ATCC 6633 by microdilution method; type: functional
Escherichia coli [4] = assay: Antibacterial activity against Escherichia coli ATCC 25922 at 100 ug/mL by microdilution method; type: functional, organism-based
Staphylococcus aureus [5] = assay: Antibacterial activity against Staphylococcus aureus ATCC 29213 at 100 ug/mL by microdilution method; type: functional, organism-based
Candida albicans [6] = assay: Antifungal activity against Candida albicans ATCC 90028 at 100 ug/mL by microdilution method; type: functional, organism-based
Escherichia coli [7] = assay: Antibacterial activity against Escherichia coli ATCC 25922 at 100 ug/disk by disk diffusion method; type: functional, organism-based
Staphylococcus aureus [8] = assay: Antibacterial activity against Staphylococcus aureus ATCC 29213 at 100 ug/disk by disk diffusion method; type: functional, organism-based
Candida albicans [9] = assay: Antifungal activity against Candida albicans ATCC 90028 at 100 ug/disk by disk diffusion method; type: functional, organism-based
Bacillus subtilis [10] = assay: Antibacterial activity against Bacillus subtilis ATCC 6633 at 100 ug/mL by microdilution method; type: functional, organism-based

MIC (Staphylococcus aureus [2]): 25 µg/mL (≈ 79 µM)
MIC (Bacillus subtilis [3]): 12.5 µg/mL (≈ 39.5 µM)
SMILES: C[C@H]1CC[C@]2(C)C(C(=O)O)=CCC[C@H]2[C@]1(C)CCc1ccoc1
zone of inhibition at 100 µg/disc (Bacillus subtilis [1]; read-out: IZ): 10 mm

MIC (Bacillus subtilis [3]): 0.78 µg/mL (≈ 2.46 µM)
SMILES: C[C@@H]1CC[C@@]2(C)C(C(=O)O)=CCC[C@@H]2[C@@]1(C)CCc1ccoc1

SMILES: CC(=O)OC[C@@H]1CC[C@@]2(C)C(C(=O)O)=CCC[C@@H]2[C@@]1(C)CCc1ccoc1
Activity (Escherichia coli [4]): inactive
Activity (Staphylococcus aureus [5]): inactive
Activity (Candida albicans [6]): inactive
Activity (Escherichia coli [7]): inactive
Activity (Staphylococcus aureus [8]): inactive
Activity (Bacillus subtilis [1]): inactive
Activity (Candida albicans [9]): inactive
Activity (Bacillus subtilis [10]): inactive

SMILES: COC(=O)C1=CC[C@H](O)[C@@H]2[C@@](C)(CCc3ccoc3)[C@H](CO)CC[C@@]12C
Activity (Escherichia coli [4]): inactive
Activity (Staphylococcus aureus [5]): inactive
Activity (Candida albicans [6]): inactive
Activity (Escherichia coli [7]): inactive
Activity (Staphylococcus aureus [8]): inactive
Activity (Bacillus subtilis [1]): inactive
Activity (Candida albicans [9]): inactive
Activity (Bacillus subtilis [10]): inactive

SMILES: C[C@@H]1CC[C@@]2(C)C(C(=O)O)=CC[C@H](O)[C@@H]2[C@@]1(C)CCc1ccoc1
Activity (Escherichia coli [4]): inactive
Activity (Staphylococcus aureus [5]): inactive
Activity (Candida albicans [6]): inactive
Activity (Escherichia coli [7]): inactive
Activity (Staphylococcus aureus [8]): inactive
Activity (Bacillus subtilis [1]): inactive
Activity (Candida albicans [9]): inactive
Activity (Bacillus subtilis [10]): inactive
